Laboratory results reported in article PMC5602538, “Assessment of the Drug Interaction Potential of Unconjugated and GalNAc3-Conjugated 2′-MOE-ASOs” (Molecular Therapy. Nucleic Acids, 2017).
{GalNAc3} = trishexylamino-C6 triantennary GalNAc conjugate; e = 2'-O-(2-methoxyethyl) (MOE); d = 2'-deoxy (DNA)

Experiments:
CYP1A2 = target: T1, CYP1A2 (Homo sapiens, UniProt P05177); test: CYP1A2 inhibition in cryopreserved human hepatocyte suspensions (phenacetin probe); type: in vitro ADME; conditions: human hepatocytes
T1 construct: Human hepatocytes (pooled from 5 donors); host or cells: cryopreserved human hepatocytes in suspension, pooled from 5 donors
Experimental: (§1) Preincubations were performed in 50 μL of Williams’ Medium E with 2 mM salicylamide. The salicylamide was included to reduce possible phase II conjugation to the precursor phase I metabolites. […] Human hepatocytes (pooled from 5 donors) were thawed and prepared according to the vendor’s protocol. […] Incubations were carried out at 37°C with 5% CO2. The incubation time was 45 min for phenacetin, diclofenac, dextromethorphan, midazolam, bupropion, chlorzoxazone, and testosterone and 90 min for paclitaxel and (S)-mephenytoin. The reactions were stopped by adding 200 μL of ice-cold acetonitrile (can) with tolbutamide (100 ng/mL) as the internal standard to 100 μL of hepatocyte suspension (1:2, v/v). The 96-well plate was then vortexed at 1,700 rpm for 3 min and centrifuged at 3,500 rpm for 10 min at 20°C. The supernatants were analyzed using liquid chromatography-tandem MS (LC-MS/MS).

human hepatocytes = test: Hepatocyte uptake (cell pellet and supernatant concentrations by LC-UV/MS); type: in vitro ADME; conditions: for Cellular concentration in hepatocytes: test concentration of 1.00 μM
Experimental: A time-course experiment was conducted in triplicate for each concentration of test compound for 0, 30, 60, and 120 min incubations at 37°C with 5% CO2. At the end of each respective time point, the cell suspensions were centrifuged for 8 min at a speed of 50 × g, and the supernatant from each sample was collected. The cell pellets were washed by resuspension in Williams’ Medium E, followed by centrifugation at 50 × g for 8 min. The supernatant from the wash step was discarded and the remaining cell pellets were kept for analysis. Cell pellets and respective supernatants were measured for the presence of ASO by LC-MS.
Samples were analyzed using a tandem LC-UV/MS method. A total of 72 samples per ASO, corresponding to human hepatocyte cells and supernatant fractions, was assayed. Samples, curves, and controls (QCs) were aliquoted into 96-well plates and internal standard was added. Aliquots in 96-well plates were extracted via a liquid-liquid extraction using ammonium hydroxide and phenol:chloroform:isoamyl alcohol (25:24:1). The aqueous layer was then further processed via solid phase extraction (Phenomenex, Strata X SPE), and then dried down under nitrogen and reconstituted in 140 μL of water containing 100 μM EDTA. Samples were then injected onto an Agilent 6130 LC-MS system for analysis. Two curves were created for quantitation, one utilizing UV absorbance at 260 nm and an additional curve using single ion monitoring data from the mass spectrometer. The calibration range using the MS detector was 0.0640–641 μM with liver homogenate, as used to quantitate the concentration in hepatocyte pellet samples. A minimum signal-to-noise ratio of 5:1 was used to distinguish ASO peaks from background noise. […] Acceptance criteria for calibration and QC standards were set to 85%–115% of nominal values. For the MS, three QC levels were run in triplicate at 1.60 μM, 160 μM, and 481 μM and eight of the nine QCs passed. For the UV, three QC levels were run in triplicate at 160 μM, 481 μM, and 3,205 μM and all QCs passed. All samples were stored at −70°C ± 10°C upon receipt. Hepatocyte cell count conversion to μM liver weight equivalent was calculated by converting the number of hepatocytes per sample to the liver weight equivalent: [(0.1 × 10^6 cells per sample)/128 × 10^6 cells/g)] × […] = 0.78 mg, where 1 g of liver contains 128 × 10^6 cells/g. Supernatant concentrations are calculated assuming a 100% recovery and that 1 mL William E Medium is equal to 1 g. The calibration range for ASOs in transporter studies was 0.01–10 μM in 100 μL for RLT buffer and 0.005–10 μM in 100 μL for HBSS buffer.

CYP2B6 = target: T2, CYP2B6 (Homo sapiens, UniProt P20813); conditions: hepatocytes
T2 sequence (P20813 1-491): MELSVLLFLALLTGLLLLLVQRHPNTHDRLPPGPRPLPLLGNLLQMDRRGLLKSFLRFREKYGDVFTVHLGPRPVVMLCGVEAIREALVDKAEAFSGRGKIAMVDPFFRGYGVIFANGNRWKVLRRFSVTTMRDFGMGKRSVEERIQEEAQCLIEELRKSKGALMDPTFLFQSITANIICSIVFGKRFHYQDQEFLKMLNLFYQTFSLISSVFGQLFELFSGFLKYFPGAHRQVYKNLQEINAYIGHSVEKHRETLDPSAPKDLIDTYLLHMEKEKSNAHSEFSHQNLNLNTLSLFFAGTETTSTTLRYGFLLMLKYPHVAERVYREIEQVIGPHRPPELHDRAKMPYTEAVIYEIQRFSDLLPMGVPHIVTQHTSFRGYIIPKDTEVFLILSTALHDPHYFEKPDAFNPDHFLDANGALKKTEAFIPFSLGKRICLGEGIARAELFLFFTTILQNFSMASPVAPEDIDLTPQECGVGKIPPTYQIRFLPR
Experimental: as §1

CYP2C8 = target: T3, CYP2C8 (Homo sapiens, UniProt P10632); conditions: hepatocytes
T3 sequence (P10632 1-490): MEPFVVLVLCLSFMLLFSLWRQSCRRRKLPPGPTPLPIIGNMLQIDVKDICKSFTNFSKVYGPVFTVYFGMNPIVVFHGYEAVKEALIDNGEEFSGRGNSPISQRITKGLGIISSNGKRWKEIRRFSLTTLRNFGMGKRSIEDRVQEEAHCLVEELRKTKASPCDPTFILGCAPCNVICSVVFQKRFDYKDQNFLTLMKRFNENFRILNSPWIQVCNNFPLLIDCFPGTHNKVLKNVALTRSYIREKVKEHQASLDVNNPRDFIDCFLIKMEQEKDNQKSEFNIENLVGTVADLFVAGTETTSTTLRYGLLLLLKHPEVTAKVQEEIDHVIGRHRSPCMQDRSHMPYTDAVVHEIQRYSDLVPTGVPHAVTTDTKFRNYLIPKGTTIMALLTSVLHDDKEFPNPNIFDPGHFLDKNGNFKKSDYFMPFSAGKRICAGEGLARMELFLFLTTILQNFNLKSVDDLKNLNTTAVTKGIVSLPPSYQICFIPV
Experimental: as §1

CYP2C9 = CYP2C9 (Homo sapiens, UniProt P11712); conditions: hepatocytes
Experimental: as §1

CYP2C19 = CYP2C19 (Homo sapiens, UniProt P33261); conditions: hepatocytes
Experimental: as §1

CYP2D6 = CYP2D6 (Homo sapiens, UniProt P10635); conditions: hepatocytes
Experimental: as §1

CYP2E1 = CYP2E1 (Homo sapiens, UniProt P05181); conditions: hepatocytes
Experimental: as §1

CYP3A4 = CYP3A4 (Homo sapiens, UniProt P08684); conditions: hepatocytes
CYP3A4, sequence (P08684 whole entry): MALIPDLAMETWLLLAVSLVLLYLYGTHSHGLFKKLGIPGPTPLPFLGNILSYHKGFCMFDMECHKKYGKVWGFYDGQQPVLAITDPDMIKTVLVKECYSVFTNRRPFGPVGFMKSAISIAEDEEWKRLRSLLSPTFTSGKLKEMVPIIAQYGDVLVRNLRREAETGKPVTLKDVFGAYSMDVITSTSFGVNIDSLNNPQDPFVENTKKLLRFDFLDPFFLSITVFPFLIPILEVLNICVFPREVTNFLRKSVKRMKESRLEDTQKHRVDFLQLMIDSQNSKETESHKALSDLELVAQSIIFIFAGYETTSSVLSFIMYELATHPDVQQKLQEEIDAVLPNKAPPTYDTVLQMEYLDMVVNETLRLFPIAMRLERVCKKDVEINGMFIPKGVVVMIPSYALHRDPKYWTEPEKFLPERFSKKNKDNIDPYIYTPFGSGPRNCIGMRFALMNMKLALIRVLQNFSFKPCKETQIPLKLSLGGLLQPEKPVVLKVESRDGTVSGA
Experimental: as §1

T1 sequence (P05177 whole entry): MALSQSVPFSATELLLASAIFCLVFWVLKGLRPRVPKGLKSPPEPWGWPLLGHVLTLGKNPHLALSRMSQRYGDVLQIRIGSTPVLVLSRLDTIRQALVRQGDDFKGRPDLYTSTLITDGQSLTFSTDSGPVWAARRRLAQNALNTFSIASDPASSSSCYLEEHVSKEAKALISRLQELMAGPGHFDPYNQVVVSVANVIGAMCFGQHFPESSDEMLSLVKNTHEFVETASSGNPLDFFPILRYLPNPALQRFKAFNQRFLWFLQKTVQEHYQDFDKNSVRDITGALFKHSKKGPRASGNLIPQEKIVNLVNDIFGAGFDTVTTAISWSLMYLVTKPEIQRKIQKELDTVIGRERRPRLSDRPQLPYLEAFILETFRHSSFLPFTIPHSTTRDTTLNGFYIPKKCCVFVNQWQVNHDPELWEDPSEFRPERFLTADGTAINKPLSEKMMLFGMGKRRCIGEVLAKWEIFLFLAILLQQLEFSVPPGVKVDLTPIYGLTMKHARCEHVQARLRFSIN
CYP2C9, sequence (P11712 whole entry): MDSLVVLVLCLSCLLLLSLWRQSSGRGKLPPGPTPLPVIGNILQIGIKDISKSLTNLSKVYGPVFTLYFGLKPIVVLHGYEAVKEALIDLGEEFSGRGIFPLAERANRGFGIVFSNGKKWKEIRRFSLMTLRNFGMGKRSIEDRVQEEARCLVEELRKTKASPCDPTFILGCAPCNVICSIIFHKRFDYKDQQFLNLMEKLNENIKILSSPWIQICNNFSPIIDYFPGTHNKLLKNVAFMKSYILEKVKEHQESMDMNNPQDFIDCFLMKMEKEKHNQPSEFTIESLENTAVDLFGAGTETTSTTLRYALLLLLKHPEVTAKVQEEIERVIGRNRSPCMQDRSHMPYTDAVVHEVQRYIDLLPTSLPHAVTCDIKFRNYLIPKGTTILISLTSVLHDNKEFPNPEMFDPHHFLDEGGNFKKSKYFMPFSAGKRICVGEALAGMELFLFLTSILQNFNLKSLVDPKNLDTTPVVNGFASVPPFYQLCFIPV
CYP2C19, sequence (P33261 whole entry): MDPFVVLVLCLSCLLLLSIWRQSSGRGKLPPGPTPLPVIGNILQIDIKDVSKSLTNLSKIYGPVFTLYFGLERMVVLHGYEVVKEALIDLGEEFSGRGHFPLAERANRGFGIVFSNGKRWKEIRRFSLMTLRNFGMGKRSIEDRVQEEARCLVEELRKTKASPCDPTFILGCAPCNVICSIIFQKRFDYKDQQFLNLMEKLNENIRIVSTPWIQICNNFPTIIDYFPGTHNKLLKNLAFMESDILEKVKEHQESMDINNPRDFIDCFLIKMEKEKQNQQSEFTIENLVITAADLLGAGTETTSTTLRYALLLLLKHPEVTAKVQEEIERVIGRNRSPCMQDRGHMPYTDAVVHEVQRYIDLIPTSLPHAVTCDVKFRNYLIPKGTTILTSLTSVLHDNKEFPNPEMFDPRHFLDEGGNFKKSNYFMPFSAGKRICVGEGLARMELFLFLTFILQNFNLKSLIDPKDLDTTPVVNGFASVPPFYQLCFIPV
CYP2E1, sequence (P05181 whole entry): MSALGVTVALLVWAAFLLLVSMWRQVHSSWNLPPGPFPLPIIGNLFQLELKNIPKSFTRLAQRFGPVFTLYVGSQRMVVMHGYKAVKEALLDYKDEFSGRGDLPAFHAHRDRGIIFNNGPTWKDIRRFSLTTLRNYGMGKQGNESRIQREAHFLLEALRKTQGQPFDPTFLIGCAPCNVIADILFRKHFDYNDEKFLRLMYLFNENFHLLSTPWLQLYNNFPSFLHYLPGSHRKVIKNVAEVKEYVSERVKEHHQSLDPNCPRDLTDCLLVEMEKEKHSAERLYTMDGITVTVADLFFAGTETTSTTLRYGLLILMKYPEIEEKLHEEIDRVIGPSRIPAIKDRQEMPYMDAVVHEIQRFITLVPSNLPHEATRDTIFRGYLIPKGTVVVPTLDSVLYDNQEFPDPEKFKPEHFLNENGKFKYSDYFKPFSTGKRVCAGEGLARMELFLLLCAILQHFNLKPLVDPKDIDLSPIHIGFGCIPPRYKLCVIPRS
CYP2D6, sequence (P10635 whole entry): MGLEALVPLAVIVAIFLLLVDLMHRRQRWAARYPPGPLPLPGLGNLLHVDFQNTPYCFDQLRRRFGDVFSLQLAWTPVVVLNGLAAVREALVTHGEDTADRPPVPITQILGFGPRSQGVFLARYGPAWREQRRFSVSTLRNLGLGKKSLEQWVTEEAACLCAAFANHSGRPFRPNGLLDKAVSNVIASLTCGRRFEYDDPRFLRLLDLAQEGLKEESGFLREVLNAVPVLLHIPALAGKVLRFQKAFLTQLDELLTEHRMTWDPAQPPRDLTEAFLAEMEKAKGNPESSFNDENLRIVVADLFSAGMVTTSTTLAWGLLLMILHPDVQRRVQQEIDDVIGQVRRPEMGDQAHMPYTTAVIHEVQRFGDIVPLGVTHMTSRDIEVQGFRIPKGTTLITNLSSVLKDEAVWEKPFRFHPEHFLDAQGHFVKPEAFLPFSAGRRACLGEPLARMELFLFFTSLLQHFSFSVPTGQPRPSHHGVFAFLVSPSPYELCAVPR

Row | Substance | IC50 (CYP1A2) | Average cellular concentration in hepatocytes (human hepatocytes; after 30-min incubation) | Average cellular concentration in hepatocytes (human hepatocytes; after 120-min incubation) | IC50 (CYP2B6) | IC50 (CYP2C8) | IC50 (CYP2C9) | IC50 (CYP2C19) | IC50 (CYP2D6) | IC50 (CYP2E1) | IC50 (CYP3A4) | Cellular concentration in hepatocytes (human hepatocytes; after 120 min of incubation) | Cellular concentration in hepatocytes (human hepatocytes; time points 0–60 min)
1 | ISIS 304801: 20-mer (5-10-5) 2′-MOE gapmer PS backbone antisense inhibitor of apoC-III, sequence AGCTTCTTGTCCAGCTTTAT (sugars from the 5' end e5 d10 e5, all phosphorothioate, methylation of C not given here) | > 100 µM | 56.3 µM | 140 µM | > 100 µM | > 100 µM | > 100 µM | > 100 µM | > 100 µM | > 100 µM | > 100 µM |  | 
2 | ISIS 420915: 20-mer 2′-MOE gapmer PS backbone antisense inhibitor of transthyretin, sequence TCTTGGTTACATGAAATCCC (all phosphorothioate, sugars by position and methylation of C not given here; 2'-MOE gapmer) | > 100 µM | 52.2 µM | 106 µM | > 100 µM | > 100 µM | > 100 µM | > 100 µM | > 100 µM | > 100 µM | > 100 µM |  | 
3 | ISIS 681257: 20-mer 2′-MOE gapmer PS/PO mixed backbone ASO conjugated to 5′-trishexylamino GalNAc3, targets Lp(a), sequence TGCTCCGTTGGTGCTTGTTC (5' {GalNAc3}, sugars by position and backbone not given here; 2'-MOE gapmer with mixed PS/PO backbone) |  | 14.0 µM | 50.6 µM |  |  |  |  |  |  |  | 0.626 µM | below the level of quantitation
